Assay results as given in patent publication US8067447B2, “Modulators of glucocorticoid receptor, AP-1, and/or NF-κB activity and use thereof” (Bristol-Myers Squibb Company, priority 2006, dated 2011).
Read-outs that look alike come from different tables or passages of the source.

Tests used:
[1] = molecular target: T1, human glucocorticoid receptor (Homo sapiens, UniProt P04150); test: Glucocorticoid Receptor Binding Assay (I), fluorescence polarization competitor kit (Fluormone GS Red); conditions: purified human recombinant full-length GR 2 nM, 1 nM Fluormone GS Red, FP
T1 construct: purified human recombinant full-length glucocorticoid receptor (2 nM); purchased Invitrogen Part #2893
T1 sequence (P04150 1-777): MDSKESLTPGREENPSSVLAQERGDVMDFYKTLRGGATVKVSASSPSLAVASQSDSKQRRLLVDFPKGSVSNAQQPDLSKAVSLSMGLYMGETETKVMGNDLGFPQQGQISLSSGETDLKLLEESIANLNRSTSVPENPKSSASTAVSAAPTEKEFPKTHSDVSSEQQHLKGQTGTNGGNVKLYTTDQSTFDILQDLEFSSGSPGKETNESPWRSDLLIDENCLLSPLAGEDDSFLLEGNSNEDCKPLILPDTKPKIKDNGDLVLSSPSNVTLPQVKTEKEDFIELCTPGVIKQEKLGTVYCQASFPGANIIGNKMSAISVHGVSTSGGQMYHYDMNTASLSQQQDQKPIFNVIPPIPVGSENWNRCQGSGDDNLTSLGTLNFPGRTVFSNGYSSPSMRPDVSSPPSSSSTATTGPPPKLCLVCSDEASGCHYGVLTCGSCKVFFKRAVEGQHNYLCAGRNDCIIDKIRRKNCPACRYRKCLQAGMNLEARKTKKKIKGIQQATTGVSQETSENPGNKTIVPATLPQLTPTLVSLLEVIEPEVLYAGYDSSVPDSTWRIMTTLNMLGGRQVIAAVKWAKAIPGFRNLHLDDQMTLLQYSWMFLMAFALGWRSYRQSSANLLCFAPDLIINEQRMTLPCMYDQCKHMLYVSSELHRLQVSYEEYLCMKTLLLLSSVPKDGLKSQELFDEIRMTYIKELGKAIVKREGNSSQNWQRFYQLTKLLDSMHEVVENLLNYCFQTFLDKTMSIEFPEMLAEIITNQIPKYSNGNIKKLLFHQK
Method: Briefly, purified human recombinant full-length glucocorticoid receptor (2 nM) was mixed with fluorescently labeled glucocorticoid (1 nM Fluormone GS Red) in the presence or absence of test compound. After two hour incubation at room temperature in the dark, the fluorescence polarization (FP) of the samples was measured. […] Test compounds were analyzed in the concentration range from 8.5E-05 μM to 5 μM.

[2] = test system: AP-1 induced transcriptional activity; test: Cellular Transrepressional Assay (AP-1 luciferase reporter in A549 cells, PMA-activated); format: cell-based; conditions: A549 cells with 7x AP-1 luciferase reporter, 10 ng/ml PMA, read-out: AP-1 (EC50, nM) (Cellular Transrepression Assay)
Method: To measure the ability of test molecules to inhibit AP-1 induced transcriptional activity an A549 cell was utilized which was stably transfected with a plasmid containing 7× AP-1 DNA binding sites (pAP-1-Luc plasmid, Stratagene Co. La Jolla, Calif.) followed by the gene for luciferase. Cells were activated with 10 ng/ml of […] (PMA) plus or minus test molecules for 7 hours. After 7 hours a luciferase reagent was added to measure luciferase enzymatic activity in the cell. After a 10 minute incubation of luciferase reagent with cells, luminescence was measured in a TopCount luminescence counter. Repression of AP-1 activity was calculated as the percentage decrease in the signal induced by PMA alone. Test molecules were analyzed in the concentration range from 0.1 nM to 40 μM. EC50s were determined by using standard curve fitting methods such as Excel fit (Microsoft Co.).

[3] = read-out: GR (Ki, nM) (GR Binding Assay (I))

Ki [1, 3] [nM] | EC50 ([2]; Homo sapiens, A549, 7 h) [nM] | Ki ([1]; GR (Ki, nM) (GR Binding Assay (I))) [nM] | EC50 ([2]; 7 hours) [nM] | Compound
9.3 | 267 | – | – | CC(C)(C(=O)Nc1nncs1)C(c1ccccc1)c1ccc2c(cnn2CCCCO)c1 (stereo not shown) [Example 76, 3-(1-(4-hydroxybutyl)-1H-indazol-5-yl)-2,2-dimethyl-3-phenyl-N-(1,3,4-thiadiazol-2-yl)propanamide]
23 | 951 | – | – | CC(C)(C(=O)Nc1nncs1)C(c1ccccc1)c1ccc2nn(CCCCO)cc2c1 (stereo not shown) [Example 77, 3-(2-(4-hydroxybutyl)-2H-indazol-5-yl)-2,2-dimethyl-3-phenyl-N-(1,3,4-thiadiazol-2-yl)propanamide]
10 | 2480 | – | – | CC(C)(C(=O)Nc1nccs1)C(c1ccccc1)c1ccc2c(cnn2-c2ccccn2)c1 (stereo not shown) [Example 79, 2,2-dimethyl-3-phenyl-3-(1-(pyridin-2-yl)-1H-indazol-5-yl)-N-(thiazol-2-yl)propanamide]
8.1 | 127 | – | – | CC(C)(C(=O)Nc1nncs1)C(c1ccccc1)c1ccc2c(cnn2-c2ccccn2)c1 (stereo not shown) [Example 80, 2,2-dimethyl-3-phenyl-3-(1-(pyridin-2-yl)-1H-indazol-5-yl)-N-(1,3,4-thiadiazol-2-yl)propanamide]
11 | 1290 | – | – | CC(C)(C(=O)Nc1nccs1)C(c1ccccc1)c1ccc2c(cnn2-c2ccncc2)c1 (stereo not shown) [Example 81, 2,2-dimethyl-3-phenyl-3-(1-(pyridin-4-yl)-1H-indazol-5-yl)-N-(thiazol-2-yl)propanamide]
20 | 491 | – | – | CC(C)(C(=O)Nc1nncs1)C(c1ccccc1)c1ccc2c(cnn2-c2ccncc2)c1 (stereo not shown) [Example 82, 2,2-dimethyl-3-phenyl-3-(1-(pyridin-4-yl)-1H-indazol-5-yl)-N-(1,3,4-thiadiazol-2-yl)propanamide]
8.8 | 230 | – | – | COc1ccc(-n2ncc3cc(C(c4ccccc4)C(C)(C)C(=O)Nc4nncs4)ccc32)cc1 (stereo not shown) [Example 83, 3-(1-(4-methoxyphenyl)-1H-indazol-5-yl)-2,2-dimethyl-3-phenyl-N-(1,3,4-thiadiazol-2-yl)propanamide]
7.2 | 306 | – | – | CC(C)(C(=O)Nc1nncs1)C(c1ccccc1)c1ccc2c(cnn2-c2ccc(O)cc2)c1 (stereo not shown) [Example 84, 3-(1-(4-hydroxyphenyl)-1H-indazol-5-yl)-2,2-dimethyl-3-phenyl-N-(1,3,4-thiadiazol-2-yl)propanamide]
– | 40 | 7.8 | – | CC(C)(C(=O)Nc1nccs1)C(c1ccccc1)c1ccc2c(cnn2-c2cccnc2)c1 (stereo not shown) [Example 85, 2,2-dimethyl-3-phenyl-3-(1-(pyridin-3-yl)-1H-indazol-5-yl)-N-(thiazol-2-yl)propanamide]
5 | 20 | – | – | CC(C)(C(=O)Nc1nncs1)C(c1ccccc1)c1ccc2c(cnn2-c2ccccc2)c1 (stereo not shown) [Example 87, 2,2-dimethyl-3-phenyl-3-(1-phenyl-1H-indazol-5-yl)-N-(1,3,4-thiadiazol-2-yl)propanamide]
85 | > 10000 | – | – | CC(C)(C(=O)Nc1nncs1)C(c1ccccc1)c1ccc2c(cnn2-c2ccc(C(F)(F)F)cc2)c1 (stereo not shown) [Example 90, 2,2-dimethyl-3-phenyl-N-(1,3,4-thiadiazol-2-yl)-3-(1-(4-(trifluoro-methyl)phenyl)-1H-indazol-5-yl)propanamide]
29 | 956 | – | – | CC(C)(C(=O)Nc1nncs1)C(c1ccccc1)c1ccc2c(cnn2-c2ccc(Br)cc2)c1 (stereo not shown) [Example 91, 3-(1-(4-bromophenyl)-1H-indazol-5-yl)-2,2-dimethyl-3-phenyl-N-(1,3,4-thiadiazol-2-yl)propanamide]
110 | > 10000 | – | – | CC(C)(C(=O)Nc1nncs1)C(c1ccccc1)c1ccc2c(cnn2-c2ccc(F)cc2C(F)(F)F)c1 (stereo not shown) [Example 92, 3-(1-(4-fluoro-2-(trifluoromethyl)phenyl)-1H-indazol-5-yl)-2,2-dimethyl-3-phenyl-N-(1,3,4-thiadiazol-2-yl)proponamide]
18 | 32 | – | – | CC(C)(C(=O)Nc1nncs1)C(c1ccccc1)c1ccc2c(cnn2-c2ccc(Cl)cc2)c1 (stereo not shown) [Example 93, 3-(1-(4-chlorophenyl)-1H-indazol-5-yl)-2,2-dimethyl-3-phenyl-N-(1,3,4-thiadiazol-2-yl)propanamide]
15 | – | – | 34 | O=C(Nc1nccs1)C1CC1(c1ccccc1)c1ccc2c(cnn2-c2ccc(F)cc2)c1 (stereo not drawn) [Example 98, Trans-2-(1-(4-fluorophenyl)-1H-indazol-5-yl)-2-phenyl-N-(thiazol-2-yl)cyclopropanecarboxamide]
248 | > 10000 | – | – | O=C(Nc1nccs1)C1CC1c1ccc2c(cnn2-c2ccc(F)cc2)c1 (stereo not shown) [Example 103, 2-(1-(4-Fluorophenyl)-1H-indazol-5-yl)-N-(thiazol-2-yl)cyclopropanecarboxamide]
7.8 | 193 | – | – | CC(C)(C(=O)Nc1nccs1)C(c1ccccc1)c1ccc2[nH]ccc2c1 (stereo not shown) [Example 107, 3-(1H-Indol-5-yl)-2,2-dimethyl-3-phenyl-N-(thiazol-2-yl)propanamide]
6.6 | 1200 | – | – | CC(C)(C(=O)Nc1nccs1)C(c1ccccc1)c1ccc2[nH]cc(C#N)c2c1 (stereo not shown) [Example 108, 3-(3-Cyano-1H-indol-5-yl)-2,2-dimethyl-3-phenyl-N-(thiazol-2-yl)propanamide]
59 | > 10000 | – | – | CC(C)(C(=O)Nc1nccs1)C(c1ccccc1)c1ccc2[nH]cc(C=O)c2c1 (stereo not shown) [Example 109, 3-(3-Formyl-1H-indol-5-yl)-2,2-dimethyl-3-phenyl-N-(thiazol-2-yl)propanamide]
13 | 220 | – | – | CC(C)(C(=O)Nc1nccs1)C(c1ccccc1)c1ccc2c(ccn2-c2ccc(F)cc2)c1 (stereo not shown) [Example 110, 3-(1-(4-Fluorophenyl)-1H-indol-5-yl)-2,2-dimethyl-3-phenyl-N-(thiazol-2-yl)propanamide]
13 | 2410 | – | – | CC(C)(C(=O)Nc1nccs1)C(c1ccccc1)c1ccc2c(-c3ccccc3)n[nH]c2c1 (stereo not shown) [Example 112, 2,2-Dimethyl-3-phenyl-3-(3-phenyl-1H-indazol-6-yl)-N-(thiazol-2-yl)propanamide]
26 | 3640 | – | – | CC(C)(C(=O)Nc1nccs1)C(c1ccccc1)c1ccc2[nH]c(-c3ccncc3)cc2c1 (stereo not shown) [Example 115, 2,2-dimethyl-3-phenyl-3-(2-(pyridin-4-yl)-1H-indol-5-yl)-N-(thiazol-2-yl)propanamide]
43 | 3260 | – | – | CC(C)(C(=O)Nc1nncs1)C(c1ccccc1)c1ccc2[nH]c(-c3ccncc3)cc2c1 (stereo not shown) [Example 116, 2,2-dimethyl-3-phenyl-3-(2-(pyridin-4-yl)-1H-indol-5-yl)-N-(1,3,4-thiadiazol-2-yl)propanamide]
57 | 3610 | – | – | CC(C)(C(=O)Nc1nccs1)C(c1ccccc1)c1ccc2[nH]c(-c3nccs3)cc2c1 (stereo not shown) [Example 117, 2,2-dimethyl-3-phenyl-N-(thiazol-2-yl)-3-(2-(thiazol-2-yl)-1H-indol-5-yl)propanamide]
95 | 2930 | – | – | CC(C)(C(=O)Nc1nncs1)C(c1ccccc1)c1ccc2[nH]c(-c3nccs3)cc2c1 (stereo not shown) [Example 118, 2,2-dimethyl-3-phenyl-N-(1,3,4-thiadiazol-2-yl)-3-(2-(thiazol-2-yl)-1H-indol-5-yl)propanamide]
146 | 2130 | – | – | Cc1ccc(-c2cc3cc(C(c4ccccc4)C(C)(C)C(=O)Nc4nccs4)ccc3[nH]2)cc1 (stereo not shown) [Example 119, 2,2-dimethyl-3-phenyl-N-(thiazol-2-yl)-3-(2-p-tolyl-1H-indol-5-yl)propanamide]
